# Several values for one entry are separate records, joined by “and”; a condition that tells them apart may be missing. Equal entries are not always repeated. Where two headings read alike, the source gives them in different places.
# How the values were obtained:
# [1] = target: T1, PDEδ (Homo sapiens, UniProt O43924); experiment: PDEδ levels by Western blot in Jurkat cells; type: cell-based; set-up: endogenous in cells; host or cells: Jurkat; details: for remaining activity at 10 µM: Jurkat, 6 h, DMSO pretreatment 2 h, then 10 μM, 6h, read-out: PDEδ/Vinculin intensity (relative to DMSO control group)
# [2] = target: T1, PDEδ; experiment: PDEδ levels by Western blot in Dox-inducible DDB1 knockout KBM7 cells; type: cell-based; set-up: endogenous in cells; host or cells: Dox-inducible DDB1-knockout KBM7; details: 5 (10 μM) 8 h, Supplementary Fig. 4f
# Method: (§1) Cells were washed with PBS and lysed in lysis buffer (50 mM Tris-HCl, pH 7.4, 150 mM NaCl, 1% Triton X-100, 1% sodium deoxycholate, 0.1% SDS) with complete protease inhibitor cocktail (Roche, 11836170001) for 30 min on ice. For Ramos cells, cell pellets were lysed in lysis buffer (50 mM Tris-HCl, pH 8, 150 mM NaCl, 1% NP-40, 0.5% sodium deoxycholate) with complete protease inhibitor cocktail. After centrifugation at 16,000 x g, the supernatant was transferred into a new tube and the protein concentration was determined by DC protein assay (BIO-RAD, 5000116). Proteins were separated by SDS-PAGE and transferred to a PVDF membrane (Thermo scientific, 0.45 μm, 88518). For PDEδ, BRD2, GAPDH, BRD4, Vinculin and BTK, the membranes were blocked with Intercept® Blocking Buffer (LI-COR Biosciences, 927-70001) at room temperature for 1 h. The primary antibodies for these proteins were diluted with Intercept® Blocking Buffer (1:500 for PDEδ, 1:3000 for Vinculin, and 1:1000 for other proteins) and incubated with the membranes overnight at 4 °C. Membranes were washed with PBS + 0.1% Tween 20 (PBS-T) five times and incubated with secondary antibodies conjugated to IRDye® Infrared Fluorescent Dyes (1:5000, LI-COR Biosciences) at room temperature for 1 h with protection from light. […] Relative band intensities were quantified using Image Lab (BIO-RAD).
# [3] = target: T1, PDEδ; experiment: PDEδ levels by Western blot in HEK293T, HAP1 and LC3B knockout HAP1 cells; type: cell-based; set-up: endogenous in cells; host or cells: HEK293T; HAP1 and LC3B-knockout HAP1
# Method: as §1
# [4] = system: PDE6D mRNA; experiment: RT-qPCR of PDE6D mRNA in Jurkat cells; type: cell-based; details: for PDE6D mRNA level (relative to DMSO control group): 6 h, Supplementary Fig. 1f
# Method: Jurkat cells were grown in 12-well plates and treated with compounds for the indicated time. RNA was extracted using the RNeasy Plus Mini Kit (QIAGEN, 74134), and DNA was removed by DNase digestion with RNase-free DNase Set (QIAGEN, 79256). cDNA was synthesized using the QuantiTect Reverse Transcription Kit (QIAGEN, 205313). The mRNA expression level was evaluated with the QuantiFast SYBR Green PCR Kit (Qiagen, 330502), using the CFX96 Real-Time PCR Detection System (BIO-RAD Laboratories), and relative expression levels were calculated using the ΔΔCt method using GAPDH as reference[45] and analyzed in GraphPad Prism 9.0. The sequences of the primers for PDE6D were 5’-[…]-3’ (forward) and 5’-[…]-3’ (reverse). For GAPDH, the sequences were 5’-[…]-3’ (forward) and 5’-[…]-3’ (reverse). For BRD2, the sequences were 5’-[…]-3’ (forward), 5’-[…]-3’ (reverse). For BRD3, the sequences were 5’-[…]-3’ (forward), 5’-[…]-3’ (reverse). For BRD4, the sequences were 5’-[…]-3’ (forward), 5’-[…]-3’ (reverse). These primers were synthesized by Sigma-Aldrich.
# [5] = target: T2, LC3B (Homo sapiens, UniProt Q9GZQ8); experiment: Thermal shift assay with LC3B; type: binding; details: 15 µM LC3B; 60 µM compound; Glo-Melt dye
# Method: For thermal shift analysis, 15 µM of human LC3B was dispensed into 384-well plates (Hard-Shell 384-well 480 PCR plates, BioRAD #HSR4805) in buffer (50 mM Tris/HCl pH 7.4, 100 mM NaCl, 1 mM GSH and 0.02% CHAPS) with a Certus Flex liquid dispenser (Gyger). 60 µM compounds in DMSO (n4 or DMSO (0.6%) as control were added with an Echo 520 acoustic liquid handler (Labcyte). Glo-Melt dye was added (final concentration: 1/100), plates sealed with Lightcycler 480 Sealing Foils (Roche, #04 729 757 001) and mixed by short centrifugation (1 min, 60 g and room temeprature). A Lightcycler 480 II (Roche) was used for thermal shift curves with a temperature gradient from 20 to 95 °C according to the manufacturer´s protocol. Protein melting curves were analyzed, and the difference in meting temperature (ΔTm) was calculated with LightCycler Thermal Shift Analysis software (ROCHE) and visualized by Graphpad Prism (Version 9.5.1).
# [6] = target: T2, LC3B; experiment: Fluorescence polarization with LC3B protein; type: binding; set-up: His (N); made in house; host or cells: E. coli BL21DE3 RIL; details: for Fluorescence Polarization (mP): probe 18 at 100 µM
# Method: The LC3B open reading frame was cloned into pOPINE-NHis by the Dortmund protein Facility (DPF). pOPINE-NHis-LC3B was transformed into BL21DE3 RIL K+. Cells were cultured in TB medium supplemented with ampicillin and chloramphenicol (Amp/Cam), 1% glucose and 2 mM MgSO4. A 10 L culture was incubated in TB/Amp with 0.01 % lactose monohydrate, 2 mM MgSO4 for 4 h at 37 °C followed by overnight incubation at 20 °C. Cells were lysed using sonication in a buffer containing 50 mM HEPES (pH 7.5), 300 mM NaCl, 10 mM imidazole, 1 mM 2-mercaptoethanol, 1 mM PMSF and DNase. Upon centrifugation, the supernatant was applied onto Ni NTA column. The column was washed using 50 mM HEPES (pH 7.5), 300 mM NaCl, 30 mM imidazole, 1 mM 2-mercaptoethanol. The protein was eluted in 50 mM HEPES pH 7.5, 300 mM NaCl, 300 mM imidazole, 1 mM 2-mercaptoethanol prior to size exclusion chromatography using 26/60 G75 column and 25 mM HEPES pH 7.5, 150 mM NaCl and1 mM DTE.
# The assay was performed in black, 384 well plates with a total volume of 20 µl per well using a buffer solution comprising 50 mM Tris, 300 mM NaCl and 1 mM 2-mercaptoethanol, pH 7.5. The BODIPY labelled compound 18 was tested at a final concentration of 100 µM, and the LC3B protein was titrated in two-fold dilution series. The plates were incubated at 20°C for 30 min, and fluorescence polarization was measured using a Tecan Spark plate reader at ex/em 502 / 511 nm.
# [7] = target: DCAF11 (Homo sapiens, UniProt Q8TEB1); experiment: In-gel fluorescence labelling of purified DCAF11; type: binding; details: 40 min; in-gel fluorescence
# Method: Purified DCAF11 protein (1 μg, Origene, TP760719) was diluted in PBS buffer that is mixed with compound 2 or BODIPY derivative 18 at the indicated concentration at room temperature. Samples were diluted with 5 × SDS sample loading buffer and heated at 95 °C for 5 min. Proteins were separated using SDS-PAGE and were visualized using the ChemiDoc MP Imaging System (BIO-RAD) at 488 nm and the results were analyzed by Image Lab (BIORAD).
# T1 sequence (O43924 whole entry): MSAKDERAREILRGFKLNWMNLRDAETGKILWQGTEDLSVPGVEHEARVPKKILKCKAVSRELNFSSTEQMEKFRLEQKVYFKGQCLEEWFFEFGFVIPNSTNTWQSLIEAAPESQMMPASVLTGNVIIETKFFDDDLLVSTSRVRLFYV
# Chain of DCAF11 (Q8TEB1 whole entry): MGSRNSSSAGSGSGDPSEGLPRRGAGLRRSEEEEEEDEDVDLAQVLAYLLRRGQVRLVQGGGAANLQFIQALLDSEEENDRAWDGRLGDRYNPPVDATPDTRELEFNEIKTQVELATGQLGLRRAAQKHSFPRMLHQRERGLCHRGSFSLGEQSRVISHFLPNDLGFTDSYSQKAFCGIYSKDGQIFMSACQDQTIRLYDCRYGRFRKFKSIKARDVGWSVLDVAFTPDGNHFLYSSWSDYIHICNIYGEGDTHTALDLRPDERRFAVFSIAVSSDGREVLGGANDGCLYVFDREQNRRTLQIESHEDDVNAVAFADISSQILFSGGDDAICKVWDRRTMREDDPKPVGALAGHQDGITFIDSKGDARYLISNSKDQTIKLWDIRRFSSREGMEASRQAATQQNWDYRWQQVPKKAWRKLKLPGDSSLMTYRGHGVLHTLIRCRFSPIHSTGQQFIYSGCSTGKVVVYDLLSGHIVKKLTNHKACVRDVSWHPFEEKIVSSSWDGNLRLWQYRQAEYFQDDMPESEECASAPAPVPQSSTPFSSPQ
compound,measurement,setting,value
Cc1ccc(-n2nc3c(=O)n(CCCC(=O)NCCc4ccc(C(=O)NCCOCCOCCOCCOc5c(Br)cc(/C=C6\C(=O)Nc7ccc(Br)cc76)cc5Br)cc4)nc(C)c3c2C)cc1 [Compound 5],PDEδ degradation,"[1]; 10 µM, 18 h incubation",ca. 75%
same,remaining activity at 10 µM,[1]; Fig. 1g,43.9%
same,remaining activity at 10 µM,[1]; Fig. 1d,44.2%
same,hook effect in PDEδ degradation,[1]; up to 10 µM concentration,no hook effect
same,PDEδ protein level (relative to DMSO control group),[2]; Dox-inducible DDB1 knockout KBM7 cells pretreated with 0.5 ug/mL Dox for 3 days,abolished
same,PDEδ protein level (relative to DMSO control group),"[2]; Dox-inducible DDB1 knockout KBM7 cells, no Dox (DMSO)",44.238 and 44.9587 and 52.5197 and 56.1328
same,PDEδ degradation in HEK293T and HAP1 cell lines,[3]; 5 μM or 10 μM,degraded
same,PDEδ degradation in LC3B knockout HAP1 cells,[3]; LC3B knockout HAP1 cells,induced PDEδ degradation
same,PDE6D mRNA level (relative to DMSO control group),[4]; 3 μM,141.721 and 114.564 and 90.7441
same,PDE6D mRNA level (relative to DMSO control group),[4]; 10 μM,145.389 and 133.515 and 106.183
same,PDEδ mRNA levels (in words),[4]; 6 h treatment,no reduction in mRNA levels
same,change of melting temperature of LC3B (ΔTm),[5],did not change the thermal stability
Cc1cc(C)n2c1C=C1C=CC(CCC(=O)NCCOCCOCCOCCOc3c(Br)cc(C=C4C(=O)Nc5ccc(Br)cc54)cc3Br)=[N+]1[B-]2(F)F [Compound 18],binding to LC3B in fluorescence polarization,"[6]; 18 at 100 µM, LC3B titrated",failed to bind
same,Fluorescence Polarization (mP),[6]; LC3B protein concentration 0.00610352 µM,132 mP and 130 mP and 100 mP and 97 mP
same,Fluorescence Polarization (mP),[6]; LC3B protein concentration 0.012207 µM,127 mP and 128 mP and 102 mP and 96 mP
same,Fluorescence Polarization (mP),[6]; LC3B protein concentration 0.0244141 µM,129 mP and 121 mP and 108 mP and 110 mP
same,Fluorescence Polarization (mP),[6]; LC3B protein concentration 0.0488281 µM,132 mP and 133 mP and 107 mP and 105 mP
same,Fluorescence Polarization (mP),[6]; LC3B protein concentration 0.0976562 µM,127 mP and 130 mP and 115 mP and 111 mP
same,Fluorescence Polarization (mP),[6]; LC3B protein concentration 0.195312 µM,131 mP and 136 mP and 106 mP and 103 mP
same,Fluorescence Polarization (mP),[6]; LC3B protein concentration 0.390625 µM,133 mP and 127 mP and 116 mP and 109 mP
same,Fluorescence Polarization (mP),[6]; LC3B protein concentration 0.78125 µM,135 mP and 112 mP and 108 mP
same,Fluorescence Polarization (mP),[6]; LC3B protein concentration 1.5625 µM,138 mP and 134 mP and 112 mP and 113 mP
same,Fluorescence Polarization (mP),[6]; LC3B protein concentration 3.125 µM,132 mP and 138 mP and 112 mP and 108 mP
same,Fluorescence Polarization (mP),[6]; LC3B protein concentration 6.25 µM,132 mP and 131 mP and 113 mP and 111 mP
same,Fluorescence Polarization (mP),[6]; LC3B protein concentration 12.5 µM,108 mP and 101 mP and 138 mP and 135 mP
same,Fluorescence Polarization (mP),[6]; LC3B protein concentration 25 µM,110 mP and 132 mP and 130 mP
same,Fluorescence Polarization (mP),[6]; LC3B protein concentration 50 µM,107 mP and 101 mP and 132 mP and 133 mP
same,Fluorescence Polarization (mP),[6]; LC3B protein concentration 100 µM,102 mP and 138 mP and 134 mP
same,binding (fluorescence labelling) to purified DCAF11,[7],binds to purified DCAF11 in a concentration-dependent manner
DC-LC3in-D5 [reference compound],change of melting temperature of LC3B (ΔTm),[5],13 °C
